The values that follow come from BindingDB's records for doi:10.1021/jm00107a015 (Institute of Cancer Research, 1991).

The assay is described as follows: Growth inhibition of thymidylate synthase(TS) in L1210 cells.

Regarding `CCN(Cc1ccc2ncnc(SC)c2c1)c1ccc(C(=O)NC(CCC(=O)O)C(=O)O)cc1` (stereo not drawn), it took 117000 nM to reach half-maximal inhibition (IC50). Consider `C#CCN(Cc1ccc2nc[nH]c(=S)c2c1)c1ccc(C(=O)NC(CCC(=O)O)C(=O)O)cc1` (stereo not drawn), for which 110 nM corresponded to half-maximal inhibition (IC50). The result for `CCN(Cc1ccc2nc[nH]c(=S)c2c1)c1ccc(C(=O)NC(CCC(=O)O)C(=O)O)cc1` (stereo not drawn) reads 260 nM.
